We go through 2 compounds from patent US6727264B1 (Synaptic Pharmaceutical Corporation, priority 2001, dated 2004).

Usually Ki stands for the equilibrium dissociation constant of an inhibitor or competing ligand from its target.

The target of assay [1] is human Dopamine D2 receptor (Homo sapiens, UniProt P14416). The assay is described as follows: Binding affinity at cloned human Dopamine D2 receptor. The following applies: read-out: hD2 Ki.
In assay [2] the target is T1, human Histamine H1 receptor (Homo sapiens, UniProt P35367).
T1 construct: expressed in transfected cells
Kind of assay: Binding affinity at cloned human Histamine H1 receptor. As to conditions: read-out: hH1 Ki.

Assay [3] addresses T2, human Alpha-1a Adrenergic receptor (Homo sapiens, UniProt P35348).
T2 construct: expressed in transfected cells
T2 sequence (P35348 1-466): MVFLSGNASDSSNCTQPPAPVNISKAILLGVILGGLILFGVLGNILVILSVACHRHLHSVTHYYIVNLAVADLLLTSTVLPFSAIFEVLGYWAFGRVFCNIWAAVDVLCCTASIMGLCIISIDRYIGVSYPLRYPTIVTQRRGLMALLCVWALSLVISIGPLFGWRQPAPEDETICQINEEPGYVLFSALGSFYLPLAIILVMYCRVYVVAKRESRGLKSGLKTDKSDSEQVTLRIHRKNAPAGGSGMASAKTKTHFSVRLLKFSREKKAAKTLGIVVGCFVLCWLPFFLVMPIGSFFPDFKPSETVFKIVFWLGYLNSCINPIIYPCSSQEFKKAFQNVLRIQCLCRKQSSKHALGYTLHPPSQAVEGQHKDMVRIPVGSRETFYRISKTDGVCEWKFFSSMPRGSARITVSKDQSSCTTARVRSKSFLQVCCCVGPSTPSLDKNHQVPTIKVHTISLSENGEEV
Kind of assay: Binding affinity at cloned human Alpha-1a Adrenergic receptor. As to conditions: read-out: hALPHA-1a Ki.

The target in assay [4] is T3, rat MCH-1 (Rattus norvegicus, UniProt P97639). Kind of assay: Radioligand binding assay at cloned rat MCH1 receptor ([3H] Compound A). Further details: host or cells: Peak rapid 293 (Peakr293) cells, transient calcium phosphate transfection, membranes. As to conditions: cloned rat MCH1 receptor, membranes from Peakr293 cells, 0.08 nM [3H] Compound A; read-out: Ki (nM) rMCH1.

Assay [5] addresses T3, rat MCH-1. The following applies: cited from earlier work.
For assay [6], the target named is human MCH-1 (Homo sapiens, UniProt Q99705). The following applies: cited from earlier work.
Assay [7] deals with food intake induced by the intracerebroventricular application of MCH. As to conditions: in vivo; cited from earlier work.

T3 sequence (P97639 whole entry): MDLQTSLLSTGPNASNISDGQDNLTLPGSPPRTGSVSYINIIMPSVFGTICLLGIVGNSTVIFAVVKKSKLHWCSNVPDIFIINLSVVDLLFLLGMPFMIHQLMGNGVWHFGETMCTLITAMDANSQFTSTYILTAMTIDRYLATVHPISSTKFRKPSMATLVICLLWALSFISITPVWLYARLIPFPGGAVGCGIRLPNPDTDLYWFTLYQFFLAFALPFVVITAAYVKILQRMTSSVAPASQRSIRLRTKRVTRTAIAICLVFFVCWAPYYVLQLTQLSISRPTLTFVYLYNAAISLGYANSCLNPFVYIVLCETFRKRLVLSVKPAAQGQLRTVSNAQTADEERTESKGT
Chain of human Dopamine D2 receptor (P14416 whole entry): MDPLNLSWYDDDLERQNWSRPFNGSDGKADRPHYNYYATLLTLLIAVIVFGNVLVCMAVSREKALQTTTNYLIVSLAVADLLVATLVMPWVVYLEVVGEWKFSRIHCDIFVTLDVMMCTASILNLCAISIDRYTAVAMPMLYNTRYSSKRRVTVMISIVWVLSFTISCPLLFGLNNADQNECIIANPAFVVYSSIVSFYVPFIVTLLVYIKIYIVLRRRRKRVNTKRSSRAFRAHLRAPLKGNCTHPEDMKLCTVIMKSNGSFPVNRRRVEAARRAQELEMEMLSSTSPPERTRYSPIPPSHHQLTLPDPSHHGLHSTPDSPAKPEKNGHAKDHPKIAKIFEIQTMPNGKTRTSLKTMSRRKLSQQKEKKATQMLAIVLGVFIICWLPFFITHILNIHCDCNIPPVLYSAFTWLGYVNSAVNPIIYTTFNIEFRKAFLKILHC
T1 sequence (P35367 whole entry): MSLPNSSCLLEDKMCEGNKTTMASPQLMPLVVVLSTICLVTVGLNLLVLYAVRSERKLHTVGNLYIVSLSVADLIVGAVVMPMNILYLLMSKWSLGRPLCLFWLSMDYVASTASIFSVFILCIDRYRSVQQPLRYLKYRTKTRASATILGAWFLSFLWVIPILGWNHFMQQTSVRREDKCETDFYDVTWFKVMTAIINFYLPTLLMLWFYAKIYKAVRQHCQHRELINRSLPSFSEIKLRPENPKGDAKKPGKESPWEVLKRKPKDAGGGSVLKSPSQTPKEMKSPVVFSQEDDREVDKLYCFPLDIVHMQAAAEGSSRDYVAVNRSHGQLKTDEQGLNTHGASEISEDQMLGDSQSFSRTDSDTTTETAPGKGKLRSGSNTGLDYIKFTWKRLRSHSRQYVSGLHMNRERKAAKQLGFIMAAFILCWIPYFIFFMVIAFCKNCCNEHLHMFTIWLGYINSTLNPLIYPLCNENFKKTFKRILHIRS
Chain of human MCH-1 (Q99705 whole entry): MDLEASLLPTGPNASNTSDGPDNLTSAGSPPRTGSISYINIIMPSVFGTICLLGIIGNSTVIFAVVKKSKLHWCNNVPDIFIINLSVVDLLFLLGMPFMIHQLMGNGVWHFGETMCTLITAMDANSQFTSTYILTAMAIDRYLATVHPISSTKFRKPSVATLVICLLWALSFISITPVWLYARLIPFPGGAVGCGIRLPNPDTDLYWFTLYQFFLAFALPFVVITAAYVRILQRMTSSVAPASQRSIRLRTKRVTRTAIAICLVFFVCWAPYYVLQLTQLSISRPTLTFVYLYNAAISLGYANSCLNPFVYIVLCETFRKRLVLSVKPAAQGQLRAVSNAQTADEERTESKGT

Consider `CC(=O)Nc1cccc(C2CCN(CCCNC(=O)N3C(=O)O[C@H](C)[C@@H]3c3ccc(F)c(F)c3)CC2)c1` [Example 75], for which the Ki in assay [1] was 19000 nM; in assay [2], 2840 nM; in assay [3] it was 2470 nM; in assay [4], 11.8 nM.
Regarding `CN(C)CC1CCc2cc(NC(=O)c3ccc(-c4ccc(F)cc4)cc3)ccc2C1` (stereo not shown) [Example T-226296, T-226296], the “affinity for the MCH-1 receptor” value in assay [5] and in assay [6] was 5 to 9 nM in each case. The “food intake induced by intracerebroventricular MCH” value in assay [7] was “inhibit food intake”.
